Results from patent US11813306B2, “Cyclic tetramer compounds as proprotein convertase subtilisin/kexin type 9 (PCSK9) inhibitors for the treatment of metabolic disorders” (NOVARTIS AG, priority 2018, dated 2023).

Biological target: human PCSK9 (Homo sapiens, UniProt Q8NBP7)
Test: PCSK9 ligand binding assay (TR-FRET): interference with binding of human PCSK9 to human LDLR
Conditions: for IC50: Human PCSK9 Alexa Fluor 647 / Human LDLR extracellular domain-Europium Kryptate; for Max % inhibition: efficacy (Amax), 100% = 1 uM unlabeled human PCSK9, 0% = DMSO
Procedure, shortened: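 Read-out was TR-FRET ratio (665 nm over 615 nm, 330 nm excitation) between Alexa Fluor 647-human PCSK9 (16 nM added) and Europium Kryptate-human LDLR ectodomain (4 nM added). Compound and PCSK9 were mixed 30 min before LDLR, then incubated 2 h. Inhibition was normalised to DMSO and unlabelled-PCSK9 controls, giving IC50 and Amax.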

Sequence of human PCSK9 (Q8NBP7 153-692): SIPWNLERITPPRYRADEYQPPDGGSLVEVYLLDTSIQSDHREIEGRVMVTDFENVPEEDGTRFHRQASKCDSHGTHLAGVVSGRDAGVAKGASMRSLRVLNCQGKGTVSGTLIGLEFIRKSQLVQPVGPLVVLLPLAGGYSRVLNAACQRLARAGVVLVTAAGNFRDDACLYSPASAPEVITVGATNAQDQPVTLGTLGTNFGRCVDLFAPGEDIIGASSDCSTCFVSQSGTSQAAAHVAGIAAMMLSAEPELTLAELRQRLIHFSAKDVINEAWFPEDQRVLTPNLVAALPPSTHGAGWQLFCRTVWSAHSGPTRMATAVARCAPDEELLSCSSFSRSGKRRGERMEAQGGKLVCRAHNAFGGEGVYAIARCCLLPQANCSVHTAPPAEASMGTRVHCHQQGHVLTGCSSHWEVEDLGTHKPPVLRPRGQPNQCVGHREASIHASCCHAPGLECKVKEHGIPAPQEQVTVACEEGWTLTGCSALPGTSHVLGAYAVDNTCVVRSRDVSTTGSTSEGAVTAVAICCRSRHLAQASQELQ
Sequence of human PCSK9 (Q8NBP7 31-152 partner limits assumed): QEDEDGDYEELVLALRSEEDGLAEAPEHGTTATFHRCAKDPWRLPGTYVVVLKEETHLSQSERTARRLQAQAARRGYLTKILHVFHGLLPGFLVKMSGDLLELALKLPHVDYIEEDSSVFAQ

Row | IC50 | Max % inhibition | Structure (SMILES)
1 | 0.979 nM | 71.9% | C[C@H]1C(=O)N[C@@H](CO)C(=O)N[C@@]2(Cc3ccc(Cl)cc3)CCCN(C2)C(=O)[C@H]([C@@H]2CCc3ccccc32)CC(=O)N1Cc1ccc(Cl)cc1Oc1ccc(-c2cnc(C3=CCN(C)C3)n2C)cc1.Cl [Compound 77, (3S,7S,10S,13R)-6-(4-chloro-2-(4-(1-methyl-2-(1-methyl-2,5-dihydro-1H-pyrrol-3-yl)-1H-imidazol-5-yl)phenoxy)benzyl)-13-(4-chlorobenzyl)-3-((S)-2,3-dihydro-1H-inden-1-yl)-10-(hydroxymethyl)-7-methyl-1,6,9,12-tetraazabicyclo[11.3.1]heptadecane-2,5,8,11-tetraone hydrochloride]
2 | 1.62 nM | 95.0% | C[C@H]1C(=O)N[C@@H](CO)C(=O)N[C@@]2(Cc3ccc(Cl)cc3)CCCN(C2)C(=O)[C@H]([C@H]2CCc3ccccc32)CC(=O)N1Cc1ccc(Cl)cc1Oc1ccc(-c2cnc(CN3CCCC3)n2C)cc1.Cl [Compound 68, (3S,7S,10S,13R)-6-(4-chloro-2-(4-(1-methyl-2-(pyrrolidin-1-ylmethyl)-1H-imidazol-5-yl)phenoxy)benzyl)-13-(4-chlorobenzyl)-3-((R)-2,3-dihydro-1H-inden-1-yl)-10-(hydroxymethyl)-7-methyl-1,6,9,12-tetraazabicyclo[11.3.1]heptadecane-2,5,8,11-tetraone hydrochloride]
3 | 205 nM | 87.3% | CC(=O)C[C@@H]1NC(=O)[C@H](C)N(Cc2ccc(Cl)cc2Oc2ccc(-c3cnc(CN4CCCC4)n3C)cc2)C(=O)C[C@@H](Cc2ccccc2)C(=O)N(C)C[C@@H](Cc2ccc(Cl)cc2)N(C)C1=O.Cl [Compound 129, (2S,5S,8R,12R)-12-benzyl-1-(4-chloro-2-(4-(1-methyl-2-(pyrrolidin-1-ylmethyl)-1H-imidazol-5-yl)phenoxy)benzyl)-8-(4-chlorobenzyl)-2,7,10-trimethyl-5-(2-oxopropyl)-1,4,7,10-tetraaza-cyclotetradecane-3,6,11,14-tetraone hydrochloride]
4 | 0.22 nM | 111.3% | COC[C@@H]1NC(=O)[C@H](C)N(Cc2ccc(Cl)cc2Oc2ccc(-c3cnc(CN(C)C)n3C)cc2)C(=O)C[C@@H](CC(F)(F)F)C(=O)N2CCC[C@@](Cc3ccc(Cl)cc3)(C2)N(C)C1=O [Compound 9, (3S, 7S, 10S, 13R)-6-(4-chloro-2-(4-(2-((dimethylamino)methyl)-1-methyl-1H-imidazol-5-yl)phenoxy)benzyl)-13-(4-chlorobenzyl)-10-(methoxymethyl)-7,12-dimethyl-3-(2,2,2-trifluoroethyl)-1,6,9,12-tetraazabicyclo[11.3.1]heptadecane-2,5,8,11-tetraone]
5 | 0.93 nM | 100.4% | C[C@H]1C(=O)N[C@@H](CO)C(=O)N[C@@]2(Cc3ccc(Cl)cc3)CCCN(C2)C(=O)[C@H](CC2CC2)CC(=O)N1Cc1c(F)cc(Cl)cc1Oc1ccc(-c2cnc(CNC3CCC3)n2C)cc1 [Compound 153, (3R, 7S, 10S, 13R)-6-(4-chloro-2-(4-(2-((cyclobutylamino)methyl)-1-methyl-1H-imidazol-5-yl)phenoxy)-6-fluorobenzyl)-13-(4-chlorobenzyl)-3-(cyclopropylmethyl)-10-(hydroxymethyl)-7-methyl-1,6,9,12-tetraazabicyclo[11.3.1]heptadecane-2,5,8,11-tetraone]
6 | 13.5 nM | 98.8% | CC[C@@H]1CC(=O)N(Cc2c(OCC(F)(F)F)cc(Cl)cc2Oc2ccc(-c3cnc(CN4CCCC4)n3C)cc2)[C@@H](C)C(=O)N[C@@H](CO)C(=O)N(C)[C@H](Cc2ccc(Cl)cc2)CNC1=O.Cl [Compound 112, (2S, 5S, 8R, 12R)-1-(4-chloro-2-(4-(1-methyl-2-(pyrrolidin-1-ylmethyl)-1H-imidazol-5-yl)phenoxy)-6-(2,2,2-trifluoroethoxy)benzyl)-8-(4-chlorobenzyl)-12-ethyl-5-(hydroxymethyl)-2,7-dimethyl-1,4,7,10-tetraazacyclotetradecane-3,6,11,14-tetraone]
